Data from patent EP0459830A1, “Pharmacologically active CNS compounds” (THE WELLCOME FOUNDATION LIMITED, priority 1990, dated 1991).

Columns and labels:
[1] = test system: veratrine-evoked release of glutamate from rat brain slices; assay: veratrine-evoked release of glutamate from rat brain slices; assay type: cell-based; settings: read-out: IC50(μM) Glutamate Release (P95 limits)
Experimental: (§1) Compounds of formula (Ia) were tested for their effect on veratrine-evoked release of glutamate from rat brain slices according to the protocol described in Epilepsia 27(5): 490-497, 1986. The protocol for testing for inhibition of DHFR activity was a modification of that set out in Biochemical Pharmacology Vol.20 pp 561-574, 1971.
(§2) The results are given in Table 1, the IC₅₀ being the concentration of compound to […] 50% of DHFR enzyme activity.

Rat Liver DHFR = target: T1, Rat Liver DHFR (Rattus norvegicus, UniProt Q920D2); assay: inhibition of DHFR activity; assay type: biochemical; settings: rat liver DHFR enzyme activity; read-out: IC50(μM) Rat Liver DHFR (P95 limits)
T1 construct: from tissue; host or cells: rat liver
T1 sequence (Q920D2 1-187): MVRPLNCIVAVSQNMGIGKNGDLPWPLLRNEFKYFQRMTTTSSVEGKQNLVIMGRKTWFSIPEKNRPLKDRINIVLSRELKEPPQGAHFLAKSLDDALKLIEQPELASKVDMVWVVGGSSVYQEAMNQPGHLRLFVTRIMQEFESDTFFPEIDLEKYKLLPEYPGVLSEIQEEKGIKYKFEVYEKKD
Experimental: as §1, §2

[2] = test system: release of the excitatory amino acids, glutamate and aspartate; settings: Leach et al Epilepsia 27, 490-497 1986; Miller et al 1987; cited from earlier work

With `Nc1cc(-c2cccc3ccccc23)nc(N)n1` [Example 4, 2,4-Diamino-6-(1-naphthyl)pyrimidine] the IC50 [1] was greater than 10 µM and the IC50 (Rat Liver DHFR) was 100 µM.

`Nc1cc(-c2ccccc2Cl)nc(N)n1` [Example 2, 2,4-Diamino-6-(2-chlorophenyl)pyrimidine] gave an IC50 [1] of 10 µM and an IC50 (Rat Liver DHFR) greater than 100 µM.

In the case of `Nc1nnc(-c2cccc(Cl)c2Cl)c(N)n1` [lamotrigine, 3,5-diamino-6-(2,3-dichlorophenyl)-1,2,4-triazine], the “inhibition of release of glutamate and aspartate” value [2] is listed as “inhibit the release of the excitatory amino acids, glutamate and aspartate”.

In the case of `Cc1c(N)nc(N)nc1-c1ccc(Cl)cc1` [*, 2,4-Diamino-5-methyl-6-(4-chlorophenyl)pyrimidine], the IC50 [1] is reported as greater than 10 µM and the IC50 (Rat Liver DHFR) is reported as greater than 55 µM.

In the case of `Nc1cc(-c2ccc(Cl)cc2Cl)nc(N)n1` [Example 3, 2,4-Diamino-6-(2,4-Dichlorophenyl)pyrimidine], the IC50 [1] is reported as greater than 10 µM and the IC50 (Rat Liver DHFR) is reported as less than 100 µM.

Compound `Nc1cc(-c2cccc(Cl)c2Cl)nc(N)n1` [Example 1, 2,4-Diamino-6-(2,3-dichlorophenyl)pyrimidine] has an IC50 [1] of 10 µM and an IC50 (Rat Liver DHFR) of less than 100 µM.
